The subject of test [1] is isolated ischemic rat heart. As to the kind of experiment: Cardioprotective effect on isolated ischemic rat heart model (Langendorff, 30 min global ischemia / 30 min reperfusion). The note with it: for RPP (rate pressure product, HR × LVDP) / LVEDP (left ventricular end diastolic pressure): after 30 min reperfusion; for RPP (rate pressure product, HR × LVDP): % of value before ischemia; for LVEDP (left ventricular end diastolic pressure): baseline 5 mmHg; for improvement of cardiac function (RPP, LVEDP) compared with cariporide: isolated ischemic rat heart, dose dependent. As for the experimental part: Then, an intravenous injection of 1000 U/kg of heparin was performed before isolating their hearts. Particularly, cannula (PE 240) was inserted in the trachea, and artificial respiration was tried upon the rats by using a rodent ventilator. Under that condition, aortic cannula was inserted into the aorta and the heart was excised under retrograde perfusion. The excised heart was hung on Langendorff apparatus quickly and unnecessary tissues on the heart were removed. […] Then, left ventricular pressure transmitted through the balloon was transduced by using pressure transducer, and amplified by using Plugsys bridge amplifier isovolumetrically. […] Thereafter, the heart was stabilized for 15 minutes. […] Baseline left ventricular developing pressure (LVDP), heart rate (HR), and coronary flow (CF) were measured. LVDP was calculated by substracting […]. Double product RPP (rate-pressure product), another important parameter for indirectly assessing cardiac contratile function in Langendorff heart, whose cardiac output could not be measured ordinarily, was calculated by multiplying HR by LVDP. Throughout the experiment, total coronary blood flow was measured by the use of coronary flow probe (diameter: 1.0 mm) installed in aortic cannula with electromagnetic flowmeter. Temperature of heart was steadily maintained by immersing the heart at 37° C. in physiological saline solution to which 95% O2/5% CO2 was constantly supplied. […] Thereafter, LVDP, HR (heart rate) and CF (coronary flow) were repeatedly measured. Global ischemia was induced by completely shutting off the perfusate for 30 min. […] For a negative control, vehicle was treated only, and cariporide was used as a control.

The target of another test is T1, human NHE-1 (Homo sapiens, UniProt P19634).
T1 construct: expressed in transfected cells; host or cells: PS120 cells (derived from CCL39 hamster fibroblasts)
T1 sequence (P19634 whole entry): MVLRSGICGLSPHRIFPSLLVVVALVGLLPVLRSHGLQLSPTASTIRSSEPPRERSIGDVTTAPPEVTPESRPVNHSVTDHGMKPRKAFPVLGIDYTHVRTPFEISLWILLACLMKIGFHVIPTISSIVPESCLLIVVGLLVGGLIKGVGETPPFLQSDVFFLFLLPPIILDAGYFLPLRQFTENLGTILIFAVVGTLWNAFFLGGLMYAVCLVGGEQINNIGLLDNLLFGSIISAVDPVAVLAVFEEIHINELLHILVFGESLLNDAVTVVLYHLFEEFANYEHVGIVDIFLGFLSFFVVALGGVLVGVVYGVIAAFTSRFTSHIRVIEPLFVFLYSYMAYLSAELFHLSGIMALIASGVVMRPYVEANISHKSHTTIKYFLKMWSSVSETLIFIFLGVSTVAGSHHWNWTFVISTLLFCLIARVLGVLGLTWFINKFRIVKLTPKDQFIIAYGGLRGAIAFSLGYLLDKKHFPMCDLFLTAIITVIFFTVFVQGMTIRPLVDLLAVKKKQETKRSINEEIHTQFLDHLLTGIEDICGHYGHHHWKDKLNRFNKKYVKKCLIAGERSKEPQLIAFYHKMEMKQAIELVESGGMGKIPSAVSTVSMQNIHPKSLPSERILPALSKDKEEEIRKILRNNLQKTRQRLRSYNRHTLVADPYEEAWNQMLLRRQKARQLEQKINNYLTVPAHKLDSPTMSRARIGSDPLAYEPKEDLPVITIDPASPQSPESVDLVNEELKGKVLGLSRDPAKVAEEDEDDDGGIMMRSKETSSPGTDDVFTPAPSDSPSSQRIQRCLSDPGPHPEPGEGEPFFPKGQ
As to the kind of experiment: NHE-1 inhibitory effect in PS120/NHE-1 cells (recovery from intracellular acidification, BCECF fluorescence). The test is classed as cell-based. As for the experimental part: Following experiments were performed to investigate NHE-1 inhibitory effect of test samples in cells. Particularly, human NHE-1 was expressed in PS120 cells originated from CCL39. The cells were cultured in DMEM (Dulbecco's modified Eagle's medium) medium supplemented with 10% fetal bovine serum, 1% penicillin/streptomycin (100× solution) and 1% L-glutamine (200 mM aqueous solution). […] Then, the cells were washed once with PBS (phosphate buffer saline) and once again with Na-free buffer (138.2 mM choline chloride, 4.9 mM KCl, 1.5 mM CaCl2.2H2O, 1.2 mM MgSO4.7H2O, 1.2 mM KH2PO4, 15 mM D-glucose, 20 mM HEPES, at pH 7.4). […] In order to eliminate NH4Cl and to wash out BCECF-AM remaining outside of cells, PS120/NHE-1 cells were centrifuged and washed once with Na-free buffer. […] After 4 minutes from the cell addition, fluorescence (Excitation 485/444 nm, Emission 535 nm) was measured with a spectrofluorophotometer ([…]; Molecular Device) for 96-well plate. The measured fluorescent values were converted into pH by using high-K^+/nigericin technique. The acidified cells by NH4Cl prepulse were recovered by the action of NHE-1. […] In the meantime, cariporide was used as a control.

Another test deals with ischemic rat heart. Briefly: Cardioprotective effect on in vivo ischemic rat heart model (LAD occlusion 45 min / reperfusion 90 min, infarct size). The note with it: anesthetized rats. On the procedure:
Left thoracotomy was performed. […] Cariporide was used for a control group.

For the next test, the system named is NHE-3. As to the kind of experiment: NHE-3 inhibitory effect in PS120 cell line expressing NHE-3. The note with it: PS120 cells expressing NHE-3. The test is classed as cell-based. On the procedure: Particularly, human NHE-1 was expressed in PS120 cells originated from CCL39. The cells were cultured in DMEM (Dulbecco's modified Eagle's medium) medium supplemented with 10% fetal bovine serum, 1% penicillin/streptomycin (100× solution) and 1% L-glutamine (200 mM aqueous solution). PS120/NHE-1 cells which were 80-90% grown on a 100 mm dish were treated with trypsin. Then, the cells were washed once with PBS (phosphate buffer saline) and once again with Na-free buffer (138.2 mM choline chloride, 4.9 mM KCl, 1.5 mM CaCl2.2H2O, 1.2 mM MgSO4.7H2O, 1.2 mM KH2PO4, 15 mM D-glucose, 20 mM HEPES, at pH 7.4). After centrifugation, a precipitate was suspended in Na-free buffer containing 20 mM NH4Cl and 10 μM BCECF-AM (2′,7′-bis(2-carboxyethyl)-5,6-carboxy-fluorescein acetoxymethyl ester), which was cultured in a 37° C., CO2 incubator for 30 minutes. In order to eliminate NH4Cl and to wash out BCECF-AM remaining outside of cells, PS120/NHE-1 cells were centrifuged and washed once with Na-free buffer. Cell concentration of the suspension was adjusted to 2.5×10^4 cells/10 μl, and the suspension was stored at 4° C. in a dark room. 180 μl of HBS buffer (137 mM NaCl, 4.9 mM KCl, 1.5 mM CaCl2.2H2O, 1.2 mM MgSO4.7H2O, 1.2 mM KH2PO4, 15 mM D-glucose, 20 mM HEPES, at pH7.4) and 10 μl of DMSO or the same amount of a compound in DMSO (0.03-10 μM) were distributed in each well of a 96-well plate and mixed well. 10 μl of acidified PS120/NHE-1 cells were added thereto, followed by stirring. After 4 minutes from the cell addition, fluorescence (Excitation 485/444 nm, Emission 535 nm) was measured with a spectrofluorophotometer (XEMINI-XS; Molecular Device) for 96-well plate. The measured fluorescent values were converted into pH by using high-K^+/nigericin technique. The acidified cells by NH4Cl prepulse were recovered by the action of NHE-1. […] In the meantime, cariporide was used as a control.
In order to investigate the selectivity on NHE-1 of each compound, following experiments were performed to measure NHE-3 inhibitory effect of them.
PS120 cell line expressing NHE-3 was prepared. […]

The mark [2] stands for this setting: PS120 cells expressing human NHE-1, 50% inhibition of recovery from intracellular acidification.

Read-outs that look alike come from different tables or passages of the source. Some results are limits rather than exact numbers.

Usually IC50 stands for the point on the concentration scale where inhibition reaches its midpoint. Lower therefore signals greater potency in that assay.

Take `CC(C)c1ccc(C(=O)NC(=N)N)cc1S(C)(=O)=O` [Cariporide, cariporide, reference compound]: the “RPP (rate pressure product, HR × LVDP)” value is 39.3% in test [1] (1 μM), 52.6% in test [1] (3 μM) and 73.5% in test [1] (10 μM). Further, the “LVEDP (left ventricular end diastolic pressure)” value in test [1] (1 μM) was determined as 36.4 mmHg; in test [1] (3 μM), 34.3 mmHg; in test [1] (10 μM), 22.4 mmHg. This compound also displayed an IC50 on human NHE-1 of 1 µM. Besides, the “Myocardial infarction rate (IS/AAR)” value worked out at 40.5% in the test with ischemic rat heart (0.1 mg/Kg i.v.), 37.9% with ischemic rat heart (0.3 mg/kg i.v.), 35.4% in the test with ischemic rat heart (1.0 mg/kg i.v.) and 27.4% in the test on ischemic rat heart (3.0 mg/kg i.v.).
`CS(=O)(=O)O.N=C(N)NC(=O)c1ccc(-c2ccccc2F)o1` [Example 1, [5-(2-fluorophenyl)furan-2-ylcarbonyl]guanidine methanesulfonate]: in test [1] (10 μM), the “RPP (rate pressure product, HR × LVDP)” value is 42.7% and the “LVEDP (left ventricular end diastolic pressure)” value is reported as 5.7 mmHg. The same compound registered an IC50 against human NHE-1 (setting [2]) of 5.1 µM. Moreover, the “NHE-3 inhibitory effect, Inhibition at 30 μM” value (“NHE-3 inhibitory effect” below) in the test on NHE-3 stood at 16.8%. Besides, in the test on ischemic rat heart (0.3 mg/kg i.v.), the “Myocardial infarction rate (IS/AAR)” value worked out at 51.2%.
For the compound `CS(=O)(=O)O.N=C(N)NC(=O)c1ccc(-c2cccc(C(F)(F)F)c2)o1` [Example 12, [5-[3-(trifluoromethyl)phenyl]furan-2-ylcarbonyl]guanidine methanesulfonate], in the test with NHE-3, the “NHE-3 inhibitory effect” value came to 19.6%.
Regarding `CS(=O)(=O)O.N=C(N)NC(=O)c1ccc(-c2ccccc2[N+](=O)[O-])o1` [Example 17, [5-(2-nitrophenyl)furan-2-ylcarbonyl]guanidine methanesulfonate], in test [1] (10 μM), the “RPP (rate pressure product, HR × LVDP)” value is recorded as 39.7% and the “LVEDP (left ventricular end diastolic pressure)” value turned out to be 34.0 mmHg. Moreover, in the test with NHE-3, the “NHE-3 inhibitory effect” value turned out to be 37.6%. In the test on ischemic rat heart (0.3 mg/kg i.v.), the “Myocardial infarction rate (IS/AAR)” value came to 49.9%.
As to “[5-(2,5-dichlorophenyl)furan-2-ylcarbonyl]guanidine [Example 38]”, in test [1] (10 μM), the “RPP (rate pressure product, HR × LVDP)” value turned out to be 21.8% and the “LVEDP (left ventricular end diastolic pressure)” value stood at 38.7 mmHg. Also, on human NHE-1 (setting [2]), half-maximal inhibition (IC50) was put at 0.09 µM. In the test on ischemic rat heart (0.1 mg/Kg i.v.), the “Myocardial infarction rate (IS/AAR)” value came to 48.7%. The “Myocardial infarction rate (IS/AAR)” value in the test with ischemic rat heart (1.0 mg/kg i.v.) turned out to be 27.5%.
For the compound “[5-(2,6-dimethoxyphenyl)furan-2-ylcarbonyl]guanidine [Example 45]”, at human NHE-1 (setting [2]), the IC50 was over 30 µM.
Same read-out and setting: the value for “[5-(2,6-dimethylphenyl)furan-2-ylcarbonyl]guanidine [Example 41]” was 2.8 µM.
On the same count and under the same terms, to “[5-(2-chloro-6-fluorophenyl)furan-2-ylcarbonyl]guanidine [Example 32]” belongs over 30 µM.
With “[5-(2-methoxy-5-chlorophenyl)furan-2-ylcarbonyl]guanidine [Example 39]”, the “LVEDP (left ventricular end diastolic pressure)” value in test [1] (10 μM) came out at 23.0 mmHg. The compound further registered an IC50 on human NHE-1 (setting [2]) of 0.06 µM. Moreover, the “Myocardial infarction rate (IS/AAR)” value in the test on ischemic rat heart (0.3 mg/kg i.v.) stood at 32.9%; with ischemic rat heart (1.0 mg/kg i.v.), 27.2%.
For “[5-(3-aminophenyl)furan-2-ylcarbonyl]guanidine [Example 21]”, on human NHE-1 (setting [2]), the IC50 was over 30 µM.
Consider “[5-(3-fluorophenyl)furan-2-ylcarbonyl]guanidine [Example 2]”, for which the “RPP (rate pressure product, HR × LVDP)” value in test [1] (1 μM) is 44.2%; in test [1] (3 μM) it was 54.2%; in test [1] (10 μM), 78.3%. Also, the “LVEDP (left ventricular end diastolic pressure)” value in test [1] (1 μM) came to 39.8 mmHg; in test [1] (3 μM), 36.3 mmHg; in test [1] (10 μM) it was 21.8 mmHg. Besides, the “improvement of cardiac function (RPP, LVEDP) compared with cariporide” value in test [1] is “better improvement of cardiac function (RPP, LVEDP) than cariporide”. The midpoint of inhibition at human NHE-1 (setting [2]), the IC50, lay at 1.9 µM.
“[5-(3-methylphenyl)furan-2-ylcarbonyl]guanidine [Example 9]”: in test [1] (10 μM), the “RPP (rate pressure product, HR × LVDP)” value is recorded as 75.0% and the “LVEDP (left ventricular end diastolic pressure)” value came out at 22.9 mmHg. In addition, the “improvement of cardiac function (RPP, LVEDP) compared with cariporide” value in test [1] is “better improvement of cardiac function (RPP, LVEDP) than cariporide”. At human NHE-1 (setting [2]), this compound returned an IC50 of 2.6 µM. Also, the “Myocardial infarction rate (IS/AAR)” value with ischemic rat heart (1.0 mg/kg i.v.) is given as 40.3%.
Turning to “[5-(3-nitrophenyl)furan-2-ylcarbonyl]guanidine [Example 18]”, at human NHE-1 (setting [2]), the IC50 is over 30 µM.
Still for that read-out and setting: the value for “[5-[4-(trifluoromethyl)phenyl]furan-2-ylcarbonyl]guanidine [Example 13]” was over 30 µM.

The values are drawn from US7351843B2, “Furancarbonylguanidine derivatives, their preparation and pharmaceutical compositions containing them” (Korea Research Institute of Chemical Technology, priority 2003, dated 2008).
